Laboratory results reported in PubChem BioAssay AID624258 (Broad Institute, 2012).
Activity calls are given as the source filed them. No rule for the calls is given here.

Test: SKN7 mediated toxicity in Saccharomyces cerevisiae, growth rescue counterscreen, dose confirmation (AID 624258);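 also: growth read after three days of incubation at 30 °C; 0% = median of neutral control wells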
Conditions: S. cerevisiae SKN7-toxicity growth rescue, plate reader; at 2.1 µM (top of the series)

Compound	growth rescue activity
C=C1C(=O)C23CCC4C(C)(C(=O)OC)CCCC4(C)C2CCC1(O)C3 (stereo not given)	-9.52% (inactive)

Same assay, conditions: S. cerevisiae SKN7-toxicity growth rescue, plate reader; at 6.8 µM (top of the series)

Compound	growth rescue activity
CC1(C)CC(=O)C(C2C3=C(CC(C)(C)CC3=O)Oc3c(Br)cc(Br)cc32)=C(O)C1 (stereo not given)	-21.5% (inactive)
CCCn1c2ccccc2c2cc(C(=O)O)ccc21	-29.3% (inactive)
COc1cc2c(cc1OC)C(C)N(C(=O)c1cccc([N+](=O)[O-])c1)CC2 (stereo not given)	-17.8% (inactive)
CCOC(=O)c1cc2c(=Cc3ccc(N(C)C)cc3)c3ccccc3n2[n+]1C	-71.9% (inactive)

Same assay, conditions: S. cerevisiae SKN7-toxicity growth rescue, plate reader; at 19.5 µM (top of the series)

Compound	growth rescue activity
Cc1c(C(=O)O)cccc1-c1ccc(/C=N/Nc2ccc(Br)cc2)o1	-92.6% (inactive)
O=C(Nc1ccc(C2=NCCN2)cc1)c1ccc(C(=O)Nc2ccc(C3=NCCN3)cc2)c(Cl)c1	-69% (inactive)
O=C(O)CSc1nc(-c2ccc(Cl)cc2)nc2c1oc1ccccc12	-84.1% (inactive)
Cc1cccc(NC(=S)NC(C)CCc2ccccc2)c1 (stereo not given)	-40.4% (inactive)
Clc1ccccc1C(c1ccccc1)(c1ccccc1)n1ccnc1	-48.3% (inactive)
O=C(Nc1nc(-c2ccccn2)cs1)c1ccc(Br)s1	-44.2% (inactive)
O=C(c1ccc(-c2ccccc2)cc1)C1CCCN(C(=O)c2cncs2)C1 (stereo not given)	-59.8% (inactive)
O=C1CC(c2cccc([N+](=O)[O-])c2)c2ccc3ccccc3c2N1 (stereo not given)	47.4% (inactive)
CSC1SCC2C(=O)N(C)C(C(C)C)C(=O)OCC(NC(=O)c3cnc4ccccc4n3)C(=O)NC(C)C(=O)N(C)C1C(=O)N(C)C(C(C)C)C(=O)OCC(NC(=O)c1cnc3ccccc3n1)C(=O)NC(C)C(=O)N2C (stereo not given)	8.43% (inactive)
O=[N+]([O-])c1cc(Oc2cccnc2)cc([N+](=O)[O-])c1	5.86% (inactive)
C/C(=N\NC(=O)COc1ccccc1-c1ccccc1)c1ccccn1	-11.5% (inactive)
O=C(O)c1c(NC(=O)N2CCCC2)sc2c1CCCC2	-88% (inactive)
Fc1ccccc1COc1ccc(Br)cc1CNCc1ccncc1	-7.59% (inactive)
CC1(C)CC(=O)C(N=Nc2ccc3ncsc3c2)=C(O)C1	0.603% (inactive)
CNc1ccc2oc(C[C@H]3O[C@@]4(CC[C@H]3C)O[C@H]([C@H](C)C(=O)c3ccc[nH]3)[C@H](C)C[C@H]4C)nc2c1C(=O)O	-78.1% (inactive)
S=c1[nH]nc(-c2ccco2)n1/N=C/c1ccc(Br)s1	30.2% (inactive)
CCCCNc1c(-c2cccc(Sc3ccc(OC)cc3)c2)nc2ccccn12	-86.4% (inactive)
CCCCC(CC)c1nnc(NC(=O)c2cccs2)s1 (stereo not given)	-59.6% (inactive)
COc1cc(NS(=O)(=O)c2ccc(C)cc2)c2ncccc2c1	-51.9% (inactive)
Oc1ccc(Br)cc1/C=N/Nc1ccccn1	-73.9% (inactive)

Compound	growth rescue activity
O=C1c2cccc(Cl)c2C(=O)c2c1cccc2N1CCCC1	11.5% (inactive)
CCCCNc1c(-c2cccc(-c3ccc(OC)cc3)c2)nc2ccc(C)cn12	-90.6% (inactive)
O=C1C(Cl)=C(NCc2cccnc2)C(=O)c2ccccc21	26.7% (inactive)
[O-][n+]1cccc2c(Br)cc(Br)c(O)c21	-82.7% (inactive)
O=C(CN1CC[n+]2c(-c3cccs3)csc21)c1ccc(-c2ccccc2)cc1	-63.4% (inactive)
Clc1nc(-c2ccccn2)nc2scc(-c3ccccc3)c12	-76.2% (inactive)
COc1cnc(-c2ccccn2)nc1Sc1ccccc1	-65.3% (inactive)
CCCCCCn1c(=O)c(C(=O)Nc2ncccc2C)c(O)c2ccccc21	-12.8% (inactive)
Cc1cccc2sc(NNC(=O)c3ccc(S(=O)(=O)N4CCCC(C)C4)cc3)nc12 (stereo not given)	-51.9% (inactive)
Oc1ccccc1-c1cc(-c2ccc3c(c2)OCCO3)n[nH]1	2.6% (inactive)
Nc1nc2sc3c(c2c(=O)s1)CCCC3	-93.9% (inactive)
N#Cc1ccc(Sc2ccccn2)c([N+](=O)[O-])c1	7.91% (inactive)
CC(=O)c1c(O)ccc2c(-c3ccccc3)cc(=O)oc12	-69.1% (inactive)
Nc1cc2nc3ccccc3oc-2cc1=O	-51.6% (inactive)
c1ccc(-c2ccc(OCCCn3cncn3)cc2)cc1	-51.8% (inactive)
COc1ccc(C2=CC(=O)C[C@H](c3ccc4c(c3)OCO4)C2)cc1	89.7% (inactive)
Cc1onc(-c2ccccc2)c1C(=O)NC(=S)NNC(=O)c1ccc(O)cc1O	-33.4% (inactive)
C=CCOC(Cn1ccnc1)c1ccc(Cl)cc1Cl (stereo not given)	-40.8% (inactive)
Cc1csc(NC(=O)C(C)Oc2ccc(Cl)cc2C)n1 (stereo not given)	10.9% (inactive)
CC[C@@H](C(=O)[C@@H](C)[C@@H](O)[C@H](C)[C@@H]1O[C@@H]([C@@H](CC)C(=O)O)CC[C@@H]1C)[C@H]1O[C@]2(C=C[C@@H](O)[C@]3(CC[C@@](C)([C@H]4CC[C@](O)(CC)[C@H](C)O4)O3)O2)[C@H](C)C[C@@H]1C	-61.6% (inactive)

Compound	growth rescue activity
CCC(C(=O)c1ccc2ncccc2c1)c1ccccc1 (stereo not given)	-32.2% (inactive)
O=C1C=C(NCc2ccccc2)c2ccccc2C1=O	41.7% (inactive)
CCn1c2ccc(C)cc2c2nc3cc(C(=O)O)ccc3nc21	18.7% (inactive)
Cc1cc(OCc2cccc(S(=O)(=O)N3CCOCC3)c2)ccc1Cl	66.7% (inactive)
Oc1c(C(Nc2cccc(C(F)(F)F)c2)c2ccncc2)ccc2cccnc12 (stereo not given)	-60.6% (inactive)
Cn1cncc1C#Cc1c(-c2ccsc2)sc2ccccc12	-77.3% (inactive)
O=c1c(/C=N/O)coc2ccc(Cl)cc12	-4.03% (inactive)
Oc1c(C(Nc2ccccn2)c2cccnc2)cc(Cl)c2cccnc12 (stereo not given)	-70.7% (inactive)
OCCN(CCO)c1cc2c3ccccc3ccc2c2ccccc12	9.38% (inactive)
C[C@]12CC[C@H](O)CC1=CCC1C2CC[C@@]2(C)C1CC[C@@H]2NC(=O)[C@@H](N)Cc1cnc[nH]1 (stereo not given in full)	26.3% (inactive)
CC(=O)N(c1ccccc1)c1ccc([N+](=O)[O-])cc1[N+](=O)[O-]	-25.3% (inactive)
CC1CN(C(=O)c2cc([N+](=O)[O-])cc([N+](=O)[O-])c2)CC(C)O1 (stereo not given)	-63% (inactive)
C(=C1c2ccccc2-c2ccccc21)c1ccncc1	-46.7% (inactive)
O=C(NCCC(=O)N1CCN(c2ccccc2O)CC1)c1ccc(Br)cc1	-9.2% (inactive)
S=C(NNc1ccc2ccccc2c1)NC1CCCCC1	-14.9% (inactive)
CC(C)N1CCN(c2ccc(OC[C@H]3CO[C@](Cn4cncn4)(c4ccc(Cl)cc4Cl)O3)cc2)CC1	-63.3% (inactive)
CN(c1ccccc1)c1nc(N2CCCC2)nc(-n2ccnc2)n1	-4.75% (inactive)
O=C(N/N=C/c1cc(Cl)cc([N+](=O)[O-])c1O)c1ccccc1NS(=O)(=O)c1cccs1	-5.73% (inactive)
O=C(CSc1ccc(-c2ccccn2)nn1)NCc1ccc(Cl)cc1	-56.5% (inactive)
FC(F)(F)c1cccc(N2CCc3cn[nH]c32)c1	-94.6% (inactive)
